In patent US10500169B2, “Supression of IgE production by compounds derived from traditional chinese medicine” (Sean N. Parker Foundation, priority 2014, dated 2019):

Key:
STAT3 = experiment: RT-PCR gene expression in stimulated PBMCs: STAT3; type: cell-based, human; details: 10 μg/mL
Method: (§1) Quantitative real time PCR was used to detect the epsilon germline transcription. Human PBMC cells (1.5×10^6 cells/mL) were co-incubated with DMF-C1 compound (10 μg/mL) at 37° C. under 5% CO2 for 4 days. Cells were then harvested and total RNA was isolated using Trizol reagent (Gibco BRL, Rockville, Md.) following the manufacturer's instructions. The RNA concentrations were then quantified by triplicate optical density (OD) readings (Bio-Rad SmartSpect 3000; Bio-Rad, Hercules, Calif.). The reverse transcription was performed to get the cDNA using ImProm-II™ Reverse Transcriptase (Promega Corporation, Madison, Wis.) as described by the manufacturer's instructions. The RT-PCR amplification was performed using Maxima™ SYBR Green qPCR Master Mix (2×) kit (Fisher Scientific, Pittsburgh, Pa.) with epsilon germline primers or GAPDH primers. The primer sequences were listed as εGLT forward: 5′-[…]-3′; εGLT reverse: 5′-[…]-3′; GAPDH-forward: 5′-[…]-3′; GAPDH-reverse: 5′-[…]-3′; STAT3-forward: 5′-[…]-3′; STAT3-reverse: 5′-[…]-3′; T-bet-forward: 5′-[…]-3′; T-bet-reverse: 5′-[…]-3′; IFN-γ-forward: 5′-[…]-3′; IFN-γ-reverse: 5′-[…]-3′; IL-10-forward: 5′-[…]-3′; IL-10-reverse: 5′-[…]-3′. IL-5-forward. 5′-[…] TGCA-3′; IL-5-reverse: 5′-[…]-3′. All primers were synthesized by Sigma-Aldrich Corporation (St. Louis, Mo.).

εGLT = experiment: RT-PCR of epsilon germline transcripts in PBMCs; type: cell-based, human; details: 10 μg/mL, 4 days, vs untreated cultures
Method: as §1

CACO-2 cells = experiment: Berberine uptake by Caco-2 cells, LC-MS; type: in vitro ADME; details: 50 μg/mL berberine, 1 hour
Method: Experiments were performed on 24 well plates for berberine uptake assay. CACO-2 cells were seeded in each well at the concentration of 1×10^5 cells/well. Cells were then allowed to grow to confluence and differentiation for 2 weeks in culture medium (DMEM+10% FBS, high glucose and sodium pyruvate and supplemented with 1% Essential Amino Acids). On the experiment day, cells were washed three times with pre-warmed HBSS and incubated with 1 ml warm HBSS for 30 minutes.
After conditioning with HBSS, cells were incubated at 37° C. with 50 μg/mL berberine with or without 250 μg/mL of nine different herbal medicines, fruits of Prunus mume (P. mume), skin of the fruits of Zanthoxylum schinifolium (Z. schinifolium), roots of Angelica sinensis (A. sinensis), rhizome of Zingiber officinalis (Z. officinalis), twigs of Cinnamomum cassia (C. cassia), bark of Phellodendron chinensis (P. chinensis), rhizome of Coptis chinensis (C. chinensis), roots of Panax ginseng (P. ginseng) and fruiting body of Ganoderma lucidum (G. lucidum). Control wells received 0, 50, 100 and 200 μg of berberine alone.
After 1 hour, cells were washed 3 times with ice-cold HBSS and scraped in 500 μl of ice cold HBSS and centrifuged. […] 75 μL of each sample was analyzed for its berberine concentration by using LC-MS. […]
All samples were analyzed using waters LC-MS system (Waters corp. MA) for berberine detection. […]

human PBMCs [1] = experiment: IgE production by PBMCs from food allergic patients stimulated with rIL-4 and anti-CD40 mAb, ELISA; type: cell-based; details: 10 days
Method: PBMCs were isolated by Ficoll Hypaque (Pharmacia, Piscataway, N.J.) using density gradient centrifugation at 1800 RPM for 30 minutes, and washed 3 times in PBS. To determine the optimal stimulation of IgE production by PBMCs, PBMCs at 1.5×10^6 cells/mL were suspended in complete RPMI medium (200 μM L-glutamine, 1% penicillin/streptomycin, 25 mM HEPES, 10% heat inactivated fetal calf serum), and co-stimulated with human recombinant IL-4 (rIL-4) at 0.01 and 0.1 μg/mL (R&D Systems, Minneapolis, Minn., USA) and anti-CD40 monoclonal antibody (mAb) at […] (R&D) for 10 and 14 days. At the end of incubation, the supernatants were collected and IgE levels were analyzed using ELISA kit (Mabtech Inc, OH). Since PBMCs stimulated with 100 ng/mL rIL-4 and 1 μg/mL anti-CD40 mAb produced the highest level of IgE, we used this culture condition for the subsequent studies. PBMCs were stimulated with 100 ng/mL rIL-4 and 1 μg/mL anti-CD40 mAb and cultured in the presence or absence of 20 μg/mL of the two purified compounds for 10 days for screening active compounds, and at different concentrations (0.15, 0.31, 0.62, 1.25, 2.5, 5, 10 μg/mL) to examine dose responses for the effective compounds. IgE level was evaluated using ELISA. The percentage of IgE inhibition was calculated as follows: […]. In some cases if enough PBMCs were obtained, aliquots of PBMCs prepared from the same individuals were used for different experiments.

Foxp3 = experiment: RT-PCR gene expression in stimulated PBMCs: Foxp3; type: cell-based, human; details: 10 μg/mL
Method: as §1

human PBMCs [2] = experiment: Cell viability of human PBMC, trypan blue exclusion; type: cell-based; details: any dose tested
Method: Cell viability was evaluated using a trypan blue exclusion as previously described. Briefly, a 10 μl of cells suspension from each culture was mixed with equal volume of trypan blue dye. The mixture was loaded into a hemocytometer and cells were counted under a microscope. The percentage of viable cells was calculated as follows: Viable cells (%)=(total number of viable cells)/(total number of cells)×100.

B cells in Human PBMCs = experiment: Apoptosis by flow cytometry, annexin V staining of CD19 B cells in PBMCs; type: cell-based; details: 10 μg/ml, 2 days incubation
T-bet = experiment: RT-PCR gene expression in stimulated PBMCs: T-bet; type: cell-based, human; details: 10 μg/mL
Method: as §1

COc1ccc2cc3[n+](cc2c1OC)CCc1cc2c(cc1-3)OCO2 [berberine]
mRNA expression of STAT-3 (STAT3): significantly increased
relative mRNA expression of εGLT (εGLT): significantly inhibited
Concentration of berberine in Cacao-2 cells, berberine standard alone (CACO-2 cells): 2950 ng/mL
inhibition of IgE production by human PBMCs (human PBMCs [1]; 20 μg/mL, rIL-4 100 ng/mL + anti-CD40 mAb 1 μg/mL): completely inhibited
inhibition at 0.62 µg/mL (human PBMCs [1]; Homo sapiens, PBMC, 240 h, 0.62 μg/mL, read-out: inhibition percentage of IgE production by PBMCs): 80.7 ± 9.24%
IC50 (human PBMCs [1]; Homo sapiens, PBMC, 240 h, rIL-4 + anti-CD40 mAb, read-out: IC50 of inhibition of IgE production by PBMCs): 0.2 µg/mL
mRNA level of Foxp3 (Foxp3): trend of increase
cell viability of human PBMC (human PBMCs [2]): not compromised
annexin V stained B cells (B cells in Human PBMCs): about 16%
mRNA expression of T-bet (T-bet): significantly increased
